Data reported in patent US6340684B1, “Phthalazine derivatives as phosphodiesterase 4 inhibitors” (Zambon Group S.p.A., priority 1998, dated 2002).

Molecular target: PDE 4 enzyme
Experiment: PDE 4 enzyme inhibition (Scintillation Proximity Assay, enzyme purified from human polymorphonuclear leukocytes)
Assay type: biochemical
Details: PDE 4 from human PMNs; SPA, [3H]cAMP, 40 minutes at 30° C.; read-out: IC50 (concentration required to inhibit cyclic nucleotide hydrolysis by 50%)
Method: Human polymorphonuclear leukocyte isolation
The polymorphonuclear leukocytes (PMNs) were isolated from peripheral blood of healthy volunteers according to Boyum A. (Scand. J. Immunol., 1976, 5th suppl., 9). Briefly, the PMNs were purified by Ficoll-Paque gradient centrifugation followed by sedimentation on dextran and the erythrocyte contamination was eliminated by hypotonic lysis.
PDE 4 enzyme purification
The human PMNs were suspended in TRIS/HCl buffer (10 mM, pH 7.8) containing MgCl2 (5 mM), EGTA (4 mM), mercaptoethanol (5 mM), TRITON-X100 (1%), pepstatin A (1 μM), PMSF (100 μM) and leupeptin (1 μM), and homogenised by Polytron homogeniser. The homogenate was centrifuged at 25,000×g for 30 minutes at 4° C. and the PDE 4 enzyme was purified by ion exchange chromatography using the FPLC technique according to Schudt C. et al. (Naunyn-Schmidberg's Arch. Pharmacol., 1991, 334, 682). The supernatant was seeded on a UNO Q12 column (Bio-Rad) and the enzyme was eluted by sodium acetate linear gradient from 50 mM to 1M using a flow rate of 4.5 ml/minutes. […]
The enzyme activity was evaluated with a Scintillation Proximity Assay (SPA) kit (Amersham). […]
SPA beads (50 μl) containing 18 mM zinc sulphate were added to stop the reaction and after 20 minutes at room temperature the radioactivity was measured using a scintillation counter. […]

IC50: 8 ± 0.5 nM
SMILES: CS(=O)(=O)N1Cc2c(ccc(OC(F)F)c2OC2CCCO2)C(Cc2c(Cl)cncc2Cl)=N1 (stereo not shown) [Compound 10, 1-(3,5-dichloro-pyridin-4-ylmethyl)-3-methansulphonyl-6-difluoromethoxy-5-(tetrahydro-furan-2-yloxy)-4H-phthalazine]
